Test results: patent US20040023935A1, “Inhalation compositions, methods of use thereof, and process for preparation of same” (Dey, L.P., priority 2002, published 2004)
Values after ≈ are worked out from the molar mass of the structure shown.

Key:
[1] = Amount of fluticasone solubilized in aqueous TPGS composition, by order of addition/mixing; format: physicochemical; settings: target concentration 180 mcg/ml; for solubility: aqueous TPGS composition, aqueous with cosolvent or surfactant or cyclodextrin
Procedure: In one embodiment, the drug is dissolved in the surfactant, such as molten TPGS, and then added to water. For example, when fluticasone propionate is prepared this way with a target concentration of 180 mcg/ml, the amount solubilized by addition of molten TPGS containing the drug to water is about 180 mcg/mL. The amount solubilized by addition of water to molten TPGS, followed by addition of the drug, is only 77 mcg/mL. If the aqueous phase is added to the molten TPGS, the TPGS phase forms a gel and this, apart from making the mixing process slower, makes the amount solubilized lower and variable.
Thus, in Process 1, aqueous phase is added to a solution of the drug in molten TPGS. In Process 2, a solution of the drug in molten TPGS is added to the aqueous phase. To avoid gel formation, the TPGS phase is added to the aqueous phase and slowly. Rapid addition may form gel. Also, high speed mixing reduces the formation of gel.

[2] = Fluticasone solubilized in molten surfactant phase at 60° C.; format: physicochemical
Procedure: Whether the cosolvent, if present, is added to either the molten TPGS phase or the aqueous phase prior to mixing of the concentrate and the aqueous phase has been found herein to affect the stability of the resulting diluted composition. […] Cosolvents such as propylene glycol (PG) and polyethylene glycol 400 (PEG 400) can influence the amount solubilized by affecting the amount dissolved in the molten TPGS phase.
However, the order of addition influences the amount of drug that may be solubilized. If PG or PEG 400 is added in the molten TPGS phase before adding the drug, the amount solubilized increases (see Table 6b, below).

Compound | solubility ([1]; addition of molten TPGS containing the drug to water) [µg/mL] | solubility ([1]; addition of water to molten TPGS, followed by addition of the drug) [µg/mL] | Amount solubilized as percent of theoretical concentration, Mean ([1]; Process 1 (Aqueous phase added to the TPGS phase all at once and then mixed)) [%] | Amount solubilized as percent of theoretical concentration, Mean ([1]; Process 2 (TPGS phase added to aqueous phase slowly with mixing)) [%] | Fluticasone solubilized in molten surfactant phase at 60° C. ([2]; Surfactant phase: TPGS alone) | Fluticasone solubilized in molten surfactant phase at 60° C. ([2]; Surfactant phase: TPGS and polyethylene glycol 400 (1:1)) | Fluticasone solubilized in molten surfactant phase at 60° C. ([2]; Surfactant phase: TPGS and propylene glycol (2.4:1))
CCC(=O)O[C@]1(C(=O)SCF)[C@H](C)C[C@H]2[C@@H]3C[C@H](F)C4=CC(=O)C=C[C@]4(C)[C@@]3(F)[C@@H](O)C[C@@]21C [fluticasone propionate, (6α,9α,11α,16α,17α)-6,9-difluro-11-hydroxy-16-methyl-3-oxo-17-(1-oxopropoxy)androsta-1,4-diene-17-carbothioic acid, S-fluoromethyl ester] | ~180 (≈ 360 µM) | 77 (≈ 154 µM) | – | – | – | – | –
C[C@@H]1C[C@H]2[C@@H]3C[C@H](F)C4=CC(=O)C=C[C@]4(C)[C@@]3(F)[C@@H](O)C[C@]2(C)[C@@]1(O)C(=O)SCF [Fluticasone, (6α,9α,11α,16α,17α)-6,9-difluoro-11-hydroxy-16-methyl-3-oxo-17-hydroxyandrosta-1,4-diene-17-carbothioic acid, S-fluoromethyl ester] | – | – | 93.64 | 99.53 | 6.5 mg/g of TPGS | 20.0 mg/g of TPGS | 11.9 mg/g of TPGS
